The values that follow come from ChEMBL document CHEMBL1136465, “Phenolics with PPAR-gamma ligand-binding activity obtained from licorice (Glycyrrhiza uralensis roots) and ameliorative effects of glycyrin on genetically diabetic KK-A(y) mice” (2003).

The structures appear in SMILES notation.

Assay type in all cases: functional
Assay [1] is filed under the species Mus musculus. Nature of the assay: Blood glucose level of the diabetic KK-Ay mice on day 0 was measured.
The species named for assay [2] is Mus musculus. Nature of the assay: Body weight of the non-fasted diabetic KK-Ay mice on day 0 was measured.
The species entered for assay [3] is Mus musculus. In words: Blood glucose level of the diabetic KK-Ay mice on day 4 was measured.
The species entered for assay [4] is Mus musculus. Nature of the assay: Body weight of the non-fasted diabetic KK-Ay mice on day 4 was measured.
For assay [5], the species on record is Mus musculus. In words: Average food intake of the diabetic KK-Ay mice was measured from total intake amount/days/number of mice.
The species named for assay [6] is Mus musculus. Nature of the assay: Body weight of the non-fasted diabetic KK-Ay mice on day 7 was measured.
The species entered for assay [7] is Mus musculus. Nature of the assay: Body weight of the fasted diabetic KK-Ay mice on day 10 was measured.
For assay [8], the species on record is Mus musculus. In words: Average sample intake of the diabetic KK-Ay mice was measured as average food intake/average body weight of mice.

Consider `CCc1ccc(CCOc2ccc(CC3SC(=O)NC3=O)cc2)nc1` (centres undefined) [PIOGLITAZONE], for which the Blood glucose in the assay filed under Mus musculus [1] was 486 mg/dL; in the assay filed under Mus musculus [3], 191 mg/dL. The Body weight in the assay filed under Mus musculus [2] was 55.1 g; in the assay filed under Mus musculus [4], 53.6 g; in the assay filed under Mus musculus [6] it was 55.8 g; in the assay filed under Mus musculus [7], 52.5 g. In the assay listed under Mus musculus [5], the Average food intake was found to be 6.34 g mouse-1 day-1. In the assay listed under Mus musculus [8], this compound showed an Average sample intake of 23 mg/kg/day.
`COc1cc2oc(=O)c(-c3ccc(O)cc3O)cc2c(OC)c1CC=C(C)C` [GLYCYRIN]: the Blood glucose worked out at 474 mg/dL in the assay listed under Mus musculus [1] and 278 mg/dL in the assay listed under Mus musculus [3]. The Body weight in the assay filed under Mus musculus [2] turned out to be 54.1 g; in the assay filed under Mus musculus [4] it was 50.4 g; in the assay filed under Mus musculus [6], 51.9 g; in the assay listed under Mus musculus [7], 48.1 g. The Average food intake in the assay filed under Mus musculus [5] came out at 5.34 g mouse-1 day-1. Also, the Average sample intake in the assay listed under Mus musculus [8] was found to be 102 mg/kg/day.
With `COc1c(CC=C(C)C)c(O)cc2oc(=O)c3c4ccc(O)cc4oc3c12` [GLYCYROL], the Blood glucose worked out at 427 mg/dL in the assay listed under Mus musculus [1] and 421 mg/dL in the assay listed under Mus musculus [3]. For the same compound, the Body weight in the assay listed under Mus musculus [2] was determined as 52.6 g; in the assay filed under Mus musculus [4], 49.1 g; in the assay filed under Mus musculus [6], 50.3 g; in the assay filed under Mus musculus [7], 46.8 g. In the assay listed under Mus musculus [5], this compound registered an Average food intake of 5.47 g mouse-1 day-1. The Average sample intake in the assay listed under Mus musculus [8] was 108 mg/kg/day.
